# Target: T1, human G6PD (glucose-6-phosphate dehydrogenase) (Homo sapiens, UniProt P11413)
# T1 construct: functional as dimer or tetramer
# Assay: growth rate of humanized E. coli (LEICA), Hill fit
# Type: cell-based
# Conditions: live E. coli Δpgi Δzwf expressing human G6PD, M9 glucose, 37 °C, 1% DMSO; growth read-out, no effect on E. coli Δpgi
# T1 sequence (P11413 2-515): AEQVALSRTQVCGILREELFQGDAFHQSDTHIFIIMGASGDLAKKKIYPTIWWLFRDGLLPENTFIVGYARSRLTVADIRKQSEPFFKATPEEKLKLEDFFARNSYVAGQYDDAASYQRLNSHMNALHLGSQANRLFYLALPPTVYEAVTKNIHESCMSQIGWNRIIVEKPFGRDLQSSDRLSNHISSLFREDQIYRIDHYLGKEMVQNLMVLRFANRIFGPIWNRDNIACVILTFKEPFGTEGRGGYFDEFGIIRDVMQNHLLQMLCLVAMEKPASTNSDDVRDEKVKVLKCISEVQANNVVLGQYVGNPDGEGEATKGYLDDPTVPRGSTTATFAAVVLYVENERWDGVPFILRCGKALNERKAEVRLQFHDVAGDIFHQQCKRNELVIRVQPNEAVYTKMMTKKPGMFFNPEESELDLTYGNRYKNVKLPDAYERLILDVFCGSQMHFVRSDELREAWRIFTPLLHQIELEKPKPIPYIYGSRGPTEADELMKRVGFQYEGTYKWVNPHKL
compound,measurement,value
N#Cc1cc(Nc2ncc3c(n2)CCCCC3=O)cs1 [G6PDi-1],IC50,111 µM
